Key:
[1] = tested on: human HCT116 colorectal adenocarcinoma; assay: Efficacy evaluation in HCT116 tumor cell xenograft model in nude mice; format: in vivo; conditions: female nude mice, subcutaneous HCT116 tumors, Day 14 vs control group
Method: Method I: Efficacy Evaluation in HCT116 Tumor Cell Xenograft Model in Nude Mice Compounds 17, 18, 19 and 32 were evaluated for oral activity against human HCT116 colorectal adenocarcinoma in female nude mice. For the treatment groups, the above compounds were given perorally in 15% Tween 80 at a dose of 20 mg/kg once daily for 14 days. As a reference group, gemcitabine was administered intraperitoneally at 160 mg/kg once every three days for 4 doses. A control group received only the vehicle on the same peroral schedule as that of the treatment groups. Treatment began on Day 1 in all groups of female nude mice (n=8) bearing subcutaneous tumors of ˜180 mm^3 in size; the study duration was 14 days. Treatment results were presented as Tumor Growth Inhibition (TGI) as a percentage of average tumor size of untreated mice in the control group at Day 14.

[2] = In vitro metabolic conversion assay using human liver S9 fractions; format: in vitro ADME; conditions: 10 μM, 37° C., 60 minutes, LC/MS/MS; for Formation of Gemcitabine: not quantitatively monitored
Method: Method H: In Vitro Metabolic Conversion Assay Using Human Liver S9 Fractions
A representative sampling of prodrug compounds was incubated with human liver S9 fractions (Life Technologies Corporation) at 10 μM in duplicates. Incubations were carried out at 37° C. in a shaker water bath. Samples were taken at 0 and 60 minutes. Negative controls (without S9 fractions) and positive controls (7-ethoxycoumarin and 7-hydroxycoumarin) were run concurrently with the test articles in duplicates. All samples were analyzed using LC/MS/MS; depletion of the parent compounds and the formation of gemcitabine were monitored, though the latter was not quantitatively monitored.
After incubation with human liver S9 fractions for 60 minutes, depletion of each test compound was observed along with formation of gemcitabine as a metabolite.

[3] = perorally in 15% Tween 80, 20 mg/kg once daily for 14 days

Row | Structure (SMILES) | % of Parent Remaining [2] [%] | Formation of Gemcitabine [2] | Tumor Growth Inhibition (TGI) ([1]; intraperitoneally 160 mg/kg once every three days for 4 doses) [%] | Tumor Growth Inhibition (TGI) [1, 3] [%]
1 | Nc1ccn([C@@H]2O[C@H](CO)[C@@H](O)C2(F)F)c(=O)n1 [gemcitabine] |  |  | 85.6 | 
2 | CCCCOC(=O)Nc1ccn([C@@H]2O[C@H](COC(=O)CCc3ccccc3)[C@@H](O)C2(F)F)c(=O)n1 [Compound 17, 4-(Butyloxycarbonylamino)-1-[(2R,4R,5R)-3,3-difluoro-4-hydroxy-5-(3-phenylpropanoyloxymethyl)oxolan-2-yl]-1,2-dihydropyrimidin-2-one] |  |  |  | 77.3
3 | Nc1ccn([C@@H]2O[C@H](COC(=O)CCc3ccccc3)[C@@H](O)C2(F)F)c(=O)n1 [Compound 3, 4-Amino-1-[(2R,4R,5R)-3,3-difluoro-4-hydroxy-5-(3-phenylpropanoyloxymethyl)oxolan-2-yl]-1,2-dihydropyrimidin-2-one] | 1 | ✓ |  | 
4 | CCCCCOC(=O)Nc1ccn([C@@H]2O[C@H](COC(=O)CCc3cccnc3)[C@@H](O)C2(F)F)c(=O)n1 [Compound 32, 1-[(2R,4R,5R)-3,3-Difluoro-4-hydroxy-5-(3-(3-pyridyl)-propanoyloxymethyl)oxolan-2-yl]-1,2-dihydro-4-(pentyloxycarbonylamino)-pyrimidin-2-one] |  |  |  | 86.7
5 | CCCCOC(=O)Nc1ccn([C@@H]2O[C@H](COC(=O)CCC(=O)Nc3ccccc3)[C@@H](O)C2(F)F)c(=O)n1 [Compound 19, 1-[(2R,4R,5R)-5-((4-Anilino-4-oxo-butanoyloxy)methyl)-3,3-difluoro-4-hydroxy-oxolan-2-yl]-4-(butyloxycarbonylamino)-1,2-dihydro-pyrimidin-2-one] |  |  |  | 75.8
6 | CCOC(=O)Nc1ccn([C@@H]2O[C@H](COC(=O)CCCCC(=O)Nc3ccccc3)[C@@H](O)C2(F)F)c(=O)n1 [Compound 13, 1-[(2R,4R,5R)-5-((6-Anilino-6-oxo-hexanoyloxy)methyl)-3,3-difluoro-4-hydroxy-oxolan-2-yl]-1,2-dihydro-4-(ethoxycarbonylamino)-pyrimidin-2-one] | 13 | ✓ |  | 
7 | CCCCOC(=O)Nc1ccn([C@@H]2O[C@H](COC(=O)CCc3cccnc3)[C@@H](O)C2(F)F)c(=O)n1 [Compound 18, 4-(Butyloxycarbonylamino)-1-[(2R,4R,5R)-3,3-difluoro-4-hydroxy-5-(3-(3-pyridyl)propanoyloxymethyl)oxolan-2-yl]-1,2-dihydro-pyrimidin-2-one] |  |  |  | 81.1

Second part, led by results:

Row | % of Parent Remaining [2] [%] | Formation of Gemcitabine [2] | Structure (SMILES) | Tumor Growth Inhibition (TGI) ([1]; intraperitoneally 160 mg/kg once every three days for 4 doses) [%] | Tumor Growth Inhibition (TGI) [1, 3] [%]
8 | 8 | ✓ | Nc1ccn([C@@H]2O[C@H](COC(=O)CCCCC(=O)Nc3ccccc3)[C@@H](O)C2(F)F)c(=O)n1 [Compound 6, 4-Amino-1-[(2R,4R,5R)-5-((6-anilino-6-oxo-hexanoyloxy)methyl)-3,3-difluoro-4-hydroxy-oxolan-2-yl]-1,2-dihydropyrimidin-2-one] |  | 
9 | 0 | ✓ | CCOC(=O)Nc1ccn([C@@H]2O[C@H](COC(=O)CCc3ccccc3)[C@@H](O)C2(F)F)c(=O)n1 [Compound 10, 1-[(2R,4R,5R)-3,3-Difluoro-4-hydroxy-5-(3-phenylpropanoyloxymethyl)oxolan-2-yl]-1,2-dihydro-4-(ethoxycarbonylamino)-pyrimidin-2-one] |  | 
10 | 0 | ✓ | CCOC(=O)Nc1ccn([C@@H]2O[C@H](COC(=O)CCCCCCC(=O)Nc3ccccc3)[C@@H](O)C2(F)F)c(=O)n1 [Compound 14, 1-[(2R,4R,5R)-5-((8-Anilino-8-oxo-octanoyloxy)methyl)-3,3-difluoro-4-hydroxy-oxolan-2-yl]-1,2-dihydro-4-(ethoxycarbonylamino)-pyrimidin-2-one] |  | 
11 | 1 | ✓ | CCOC(=O)Nc1ccn([C@@H]2O[C@H](CO)[C@@H](OC(=O)CCc3cccnc3)C2(F)F)c(=O)n1 [Compound 59, 1-[(2R,4R,5R)-3,3-Difluoro-5-hydroxymethyl-4-(3-(3-pyridyl)propanoyloxy)oxolan-2-yl]-1,2-dihydro-4-(ethoxycarbonylamino)-pyrimidin-2-one] |  | 
12 | 0 | ✓ | CCOC(=O)Nc1ccn([C@@H]2O[C@H](CO)[C@@H](OC(=O)CCc3ccccc3)C2(F)F)c(=O)n1 [Compound 58, 1-[(2R,4R,5R)-3,3-Difluoro-5-hydroxymethyl-4-(3-phenylpropanoyloxy)oxolan-2-yl]-1,2-dihydro-4-(ethoxycarbonylamino)-pyrimidin-2-one] |  | 
13 | 2 | ✓ | CCOC(=O)Nc1ccn([C@@H]2O[C@H](CO)[C@@H](OC(=O)CCCCCCC(=O)Nc3ccccc3)C2(F)F)c(=O)n1 [Compound 62, 1-[(2R,4R,5R)-4-(8-Anilino-8-oxo-octanoyloxy)-3,3-difluoro-5-hydroxymethyl-oxolan-2-yl]-1,2-dihydro-4-(ethoxycarbonylamino)-pyrimidin-2-one] |  | 
14 | 0 | ✓ | CCOC(=O)Nc1ccn([C@@H]2O[C@H](COC(=O)CCc3cccnc3)[C@@H](O)C2(F)F)c(=O)n1 [Compound 11, 1-[(2R,4R,5R)-3,3-Difluoro-4-hydroxy-5-(3-(3-pyridyl)-propanoyloxymethyl)oxolan-2-yl]-1,2-dihydro-4-(ethoxycarbonylamino)-pyrimidin-2-one] |  | 

Reference: patent US9890189B2, “Gemcitabine prodrugs and uses thereof” (BoYen Therapeutics, Inc., priority 2012, dated 2018)
